The values that follow come from patent US20260159519A1, “IMIDAZOPYRIDAZINE SUBSTITUTED BENZENE RING DERIVATIVE, PREPARATION METHOD, PHARMACEUTICAL COMPOSITION AND USE” (SHANGHAI SIMR BIOTECHNOLOGY CO., LTD., priority 2022, published 2026).

The target of test [1] is T1, human α2-GABAA receptor (BZD site, membrane protein of HEK293 cells) (Homo sapiens, UniProt P18507+P47869).
T1 construct: expressed in transfected cells
The test is described as follows: Radioligand competitive binding assay (3H-flunitrazepam) at the BZD site of the α2-GABAA receptor. The settings on record: competition with 1 nM 3H-flunitrazepam; Ki calculated from IC50; read-out: α2 Ki. The text has this: (§1) α subunit, β subunit, and γ subunit are essential for the formation of a complete and functional GABAA receptor. In this example of the present disclosure, HEK293 cells stably expressing the human α1-GABAA receptor (α1-GABAAR) and α2-GABAA receptor (α2-GABAAR) were constructed and separately selected using the lipofection method (Felgner, P. L., et al. Proceedings of the National Academy of Sciences, 1987, 84: 7413-7417). The α1-GABAAR-HEK293 cell model simultaneously expressed the α1 subunit (for protein sequence, see GenBank accession No.: NM_000806.5), the […] (for protein sequence, see GenBank accession No.: NM_000814.5), and the […] (for protein sequence, see GenBank accession No.: NM_000816.3). The α2-GABAAR-HEK293 cell model simultaneously expressed the α2 subunit (for protein sequence, see GenBank accession No.: NM_000807.4), the β3 subunit (for protein sequence, see GenBank accession No.: NM_000814.5), and the γ2 subunit (for protein sequence, see GenBank accession No.: NM_000816.3).
(§2) The above cell lines were subcultured. The α2-GABAAR-HEK293 cells were expanded for testing the affinity of compounds to the benzodiazepine (BZD) site of the GABAA receptor. During the passage process, some of the α1-GABAAR-HEK293 cells and α2-GABAAR-HEK293 cells were suspended and plated on a slide pre-treated with Poly-D-Lysine for electrophysiological testing (method referenced from patent CN107344936A, paragraph 0586).
The affinity of the compounds for the α2-GABAA receptor was determined by competing for the binding of ^3H-flunitrazepam (isotope ^3H-labelled flunitrazepam) to the BZD site on the membrane protein of HEK293 cells stably expressing the human α2-GABAAR.
Membrane preparation: Cells were suspended in 50 mM Tris-HCl buffer (pH=7.4), homogenized 10 times for 20 seconds with a homogenizer on ice, and centrifuged at 1000 g for 10 minutes at 4° C. The supernatant was taken, and the above steps were repeated. The supernatant was centrifuged at 4° C. (33800 g; Thermo, rotor: A27-8×50) for 60 minutes. The precipitate was resuspended in Tris buffer (50 mM Tris-HCl, 10 mM MgCl2, 0.5 mM EDTA, and 10% glycerol). The protein content was determined (BCA (bicinchoninic acid) protein quantification assay based on copper ion reduction, with a BCA kit purchased from Pierce (Annoron (Beijing) Biotechnology Co., Ltd.)), and 1 mL aliquots were prepared and stored at −80° C.
Radioligand competitive binding assay: This assay was performed in a 200 μL system (96-well plate) containing 100 μL of cell membrane. The concentration of ^3H-flunitrazepam was 1 nM, and the concentrations of the test compounds were in the range of […]. Flumazenil was used as a control. 1 μL of 2 mM flumazenil (final […]) was added to each low signal control (low control, LC) well, and 1 μL of dimethyl sulfoxide was added to each high signal control (high control, HC) well. The final concentration of target membrane protein was […]. All sample stock solutions of test compounds were 10 mM dimethyl sulfoxide solutions. All the samples were diluted to a concentration of 0.2 mM with dimethyl sulfoxide, and then subjected to a 4-fold serial dilution for a total of 8 working concentration gradients. The 96-well plate was sealed with a sealing membrane and then incubated on a shaker at room temperature for 1 hour. Meanwhile, a GF/C filter plate was soaked in plate soaking buffer (0.3% PEI (polyethyleneimine, purchased from Sigma-Aldrich, model: P314), stored at 4° C.) for at least 0.5 hours. After the binding incubation was completed, the cells were harvested onto the GF/C filter plate using a cell harvester and washed four times with plate washing buffer (50 mM Tris-HCl, pH 7.4, stored at 4° C.). After drying in an oven at 50° C. for 1 hour, the dried GF/C filter plate was bottom-sealed. The residual radioactivity on the filter membrane was detected by liquid scintillation counting.

For test [2], the target named is T2, human α1-GABAA receptor (α1-GABAAR-HEK293 cells) (Homo sapiens, UniProt P14867+P18507).
T2 construct: expressed in transfected cells
The test is described as follows: Whole-cell patch-clamp electrophysiology, positive allosteric modulatory activity on α1-GABAA receptor. Format: cell-based. To be noted: read-out: α1-GABAA positive allosteric modulatory activity.
Text: as §1, §2
(§3) The positive regulatory activity of the test drugs on the α1-GABAA receptor and the α2-GABAA receptor was detected by the electrophysiological method. The specific method was as follows:
(§4) Compound concentration setting: The final concentration of the compounds used for screening was 100 nM. For cell lines expressing the α1-GABAA receptor, the concentration of GABA was 0.05 to 0.07 μM (approximately EC2-4). For cell lines expressing the α2-GABAA receptor, the concentration of GABA was 0.10 to 0.11 μM (approximately EC7-8). Electrophysiological testing was performed using the whole-cell patch-clamp technique, which can refer to the method reported in the literature (Nickolls, S. A., et al. British Journal of Pharmacology, 2018, 175: 708-725). The composition of the extracellular solution (ECS) for electrophysiology was as follows: 150 mM NaCl, 5 mM KCl, 2.5 mM CaCl2, 1 mM MgCl2, 10 mM HEPES, and 10 mM glucose (pH 7.4). The formulation of the intracellular solution (ICS) for electrophysiology was as follows: 140 mM CsCl, 11 mM EGTA, 10 mM HEPES, 2 mM CaCl2, 1 mM MgCl2, 4 mM MgATP, and 2 mM TEA (pH 7.3). GABA (γ-aminobutyric acid) powder was prepared into a mother liquor with pure water, which was then diluted in ECS. The compound was first prepared into a 4 mM mother liquor with dimethyl sulfoxide, which was then gradually diluted in the corresponding concentration of GABA-ECS. The solutions were freshly prepared prior to electrophysiological testing.
(§5) Electrophysiological signal acquisition was performed using an EPC 10 amplifier and PatchMaster software (HEKA) or an Axon 700B amplifier and Clampex software (AXON). The recording electrode was made through a drawing process using borosilicate glass, with an electrode resistance of 4 to 6 MΩ. Extracellular administration was performed using the ALA-VC-8PG™ system. A single, independently growing cell was selected. After the glass electrode formed a good seal with the cell, the membrane was ruptured to form the whole-cell configuration. The cell membrane potential was clamped at −60 mV and recorded in Gap-free mode. During the test, the extracellular solution was first applied extracellularly for approximately 20 seconds. After the baseline (Iprebaseline) stabilized, the extracellular solution was switched to GABA-ECS. At this point, the current induced by GABA (Igaba) could be detected. After approximately 10 to 20 seconds, when the current stabilized, the extracellular solution was switched to a mixture of the compound and GABA-ECS. […]
A general note: In patch-clamp work, channel activity is measured electrically.

The target in test [3] is T3, human α2-GABAA receptor (α2-GABAAR-HEK293 cells) (Homo sapiens, UniProt P18507+P47869).
T3 construct: expressed in transfected cells
The test is described as follows: Whole-cell patch-clamp electrophysiology, positive allosteric modulatory activity on α2-GABAA receptor. Format: cell-based. The settings on record: read-out: α2-GABAA positive allosteric modulatory activity.
Text: as §1, §2, §3, §4, §5

As for `COc1cc2nn(C)cc2cc1-c1cc(-c2cnnc3c2ncn3C(C)C)ccc1F` [Example 49, 4-(4-Fluoro-3-(6-methoxy-2-methyl-2H-indazol-5-yl)phenyl)-7-isopropyl-7H-imidazo[4,5-c]pyridazine], in test [1], the Ki (as a rule, a measure of affinity in units of concentration, obtained from inhibition or displacement) was 9.16 nM. In addition, the values for the activation at 0.1 µM in test [2] and in test [3] were 58% and 94%, respectively.

Regarding `CCn1cnc2c(-c3ccc(F)c(-c4cc5cn(C(F)F)nc5cc4OC)c3)cnnc21` [Example 111, 4-(3-(2-(Difluoromethyl)-6-methoxy-2H-indazol-5-yl)-4-fluorophenyl)-7-ethyl-7H-imidazo[4,5-c]pyridazine], in test [1], the Ki is 3.35 nM. Moreover, the activation at 0.1 µM in test [2] amounted to 64%; in test [3], 102%.

On to `CCn1cnc2c(-c3ccc(F)c(-c4cc5ccn(C)c(=O)c5cc4OC)c3)cnnc21` [Example 121, 6-(5-(7-Ethyl-7H-imidazo[4,5-c]pyridazin-4-yl)-2-fluorophenyl)-7-methoxy-2-methylisoquinolin-1(2H)-one], for which the Ki in test [1] was 3.02 nM. In addition, the activation at 0.1 µM was -6% in test [2] and 90% in test [3].

As to `CCn1cnc2c(-c3ccc(F)c(-c4ccc5c(nnn5CC)c4COC)c3)cnnc21` [Example 11, 7-Ethyl-4-(3-(1-ethyl-4-(methoxymethyl)-1H-benzo[d][1,2,3]triazol-5-yl)-4-fluorophenyl)-7H-imidazo[4,5-c]pyridazine], the inhibition constant Ki in test [1] is 16.4 nM. Further, the activation at 0.1 µM worked out at 75% in test [2] and 97% in test [3].

Consider `CCn1cnc2c(-c3ccc(F)c(-c4cc5oc(=O)n(C6CC6)c5cc4OC)c3)cnnc21` [Example 51, 3-Cyclopropyl-6-(5-(7-ethyl-7H-imidazo[4,5-c]pyridazin-4-yl)-2-fluorophenyl)-5-methoxybenzo[d]oxazol-2(3H)-one], for which the Ki in test [1] is 3.44 nM. The figures for the activation at 0.1 µM in test [2] and in test [3] were 14% and 90%, respectively.

Turning to `CCn1cnc2c(-c3ccc(F)c(-c4cc5cn(C6CCN(C)CC6(F)F)nc5cc4OC)c3)cnnc21` (stereo not drawn) [Example 74, 4-(3-(2-(3,3-Difluoro-1-methylpiperidin-4-yl)-6-methoxy-2H-indazol-5-yl)-4-fluorophenyl)-7-ethyl-7H-imidazo[4,5-c]pyridazine], in test [1], the inhibition constant Ki is 6.99 nM. In addition, the activation at 0.1 µM was 9% in test [2] and 104% in test [3].

As for `CCn1cnc2c(-c3ccc(F)c(-c4cc5sc(=O)n(C)c5cc4OC)c3)cnnc21` [Example 53, 6-(5-(7-Ethyl-7H-imidazo[4,5-c]pyridazin-4-yl)-2-fluorophenyl)-5-methoxy-3-methylbenzo[d]thiazol-2(3H)-one], in test [1], the inhibition constant Ki was 3.78 nM. For the same compound, the values for the activation at 0.1 µM in test [2] and in test [3] were 21% and 94%, respectively.

As for `CCn1cnc2c(-c3ccc(F)c(-c4cc5oc(=O)n(CCOC)c5cc4OC)c3)cnnc21` [Example 28, 6-(5-(7-Ethyl-7H-imidazo[4,5-c]pyridazin-4-yl)-2-fluorophenyl)-5-methoxy-3-(2-methoxyethyl)benzo[d]oxazol-2(3H)-one], in test [1], the inhibition constant Ki is 8.56 nM. The figures for the activation at 0.1 µM in test [2] and in test [3] were 38% and 115%, respectively.

Take `CCn1cc2cc(-c3cc(-c4cnnc5c4ncn5CC)ccc3F)c(OC)cc2n1` [Example 130, 7-Ethyl-4-(3-(2-ethyl-6-methoxy-2H-indazol-5-yl)-4-fluorophenyl)-7H-imidazo[4,5-c]pyridazine]: the inhibition constant (Ki) in test [1] is 4.8 nM. Besides, the activation at 0.1 µM was 36% in test [2] and 139% in test [3].

In the case of `CCn1cnc2c(-c3ccc(F)c(-c4cc5ccnnc5cc4OC)c3)cnnc21` [Example 112, 6-(5-(7-Ethyl-7H-imidazo[4,5-c]pyridazin-4-yl)-2-fluorophenyl)-7-methoxycinnoline], in test [1], the Ki is 7.62 nM. Further, the activation at 0.1 µM was 64% in test [2] and 171% in test [3].

Regarding `COc1cc2c(cc1-c1cc(-c3cnnc4c3ncn4C(C)C)ccc1F)oc(=O)n2C` [Example 35, 6-(2-Fluoro-5-(7-isopropyl-7H-imidazo[4,5-c]pyridazin-4-yl)phenyl)-5-methoxy-3-methylbenzo[d]oxazol-2(3H)-one], the Ki in test [1] is 7.73 nM. In addition, the activation at 0.1 µM turned out to be 80% in test [2] and 134% in test [3].

For `CCn1cnc2c(-c3ccc(F)c(-c4cc5cn(C6COC6)nc5cc4OC)c3)cnnc21` [Example 129, 7-Ethyl-4-(4-fluoro-3-(6-methoxy-2-(oxetan-3-yl)-2H-indazol-5-yl)phenyl)-7H-imidazo[4,5-c]pyridazine], in test [1], the Ki is 3.23 nM. Besides, the activation at 0.1 µM in test [2] was determined as 56%; in test [3], 128%.

Turning to `CCn1cnc2c(-c3ccc(F)c(-c4cc5cn(C6CC6)nc5cc4OC)c3)cnnc21` [Example 114, 4-(3-(2-Cyclopropyl-6-methoxy-2H-indazol-5-yl)-4-fluorophenyl)-7-ethyl-7H-imidazo[4,5-c]pyridazine], the Ki in test [1] is 9.97 nM. Besides, the activation at 0.1 µM in test [2] amounted to 68%; in test [3], 107%.

For `CCn1cnc2c(-c3ccc(F)c(-c4cc5ccncc5cc4OC)c3)cnnc21` [Example 123, 6-(5-(7-Ethyl-7H-imidazo[4,5-c]pyridazin-4-yl)-2-fluorophenyl)-7-methoxyisoquinoline], in test [1], the Ki was 7.7 nM. The activation at 0.1 µM in test [2] came to 33%; in test [3] it was 95%.
